These are literature values, as cited in patent publication US8658806B2, “Process for preparing optically active antrocin” (Deyew Biotech Corp., priority 2011, dated 2014).

The data set deals with MDA-MB-231 cells. To be noted: from Rao et al., Chem. Res. Toxicol. 2011, 24, 238-245, read-out: IC50 value against MDA-MB-231 cells of metastatic breast cancer.

Regarding `C=C1CC[C@H]2C(C)(C)CCC[C@@]23C(=O)OC[C@@H]13` [antrocin], the IC50 is 0.6 µM.

One may read the IC50 as the concentration needed to halve the response being measured.
